Read-outs that look alike come from different tables or passages of the source.
What was measured:
[1] = Log P by shaking flask method (n-octanol/water); format: physicochemical
Experimental: (§1) An HPLC system (Shimadzu, Japan) was equipped with a LC-20AD binary pump system, a SIL-20AD auto sampler, a CBM-20A system controller, and a CTO-20A oven. Separation of MHO7 and IS from endogenous substances was carried out on an Agilent Zorbax XDB C18 column (5 μm, 250 × 4.6 mm, Agilent, Pal Alto, CA, USA), which was kept at 30 °C. The mobile phase was composed of 30% phase A (water) and 70% phase B (acetonitrile) with a flow rate of 1 mL·min^−1. The inject volume of the sample solution was 10 μL.
(§2) The phases of distilled water and n-octanol were saturated with each other by shaking for 48 h with 250 rpm in a shaking water bath prior to use. Solutions of MHO7 was prepared in concentration of 10 mM·L^−1 in n-octanol. Accurately measured amounts of the two solvents with necessary quantity of MHO7 were placed in a 5.0 mL centrifuge tube; then, the mixture was carried out at 250 rpm and designated temperature in the shaking water bath for 48 h to afford complete phase separation. The samples of both phases were collected at 0, 4, 8, 12, 24, 30, 36 and 48 h, diluted with methanol (1:1, V) and determined by HPLC with the detection wavelength of 234 nm. Each set of solvent systems for experimental logP/D value was the mean of the three determinations.

[2] = Log D by shaking flask method (n-octanol/phosphate buffer); format: physicochemical; details: 37 °C
Experimental: as §1, §2

[3] = pH 7, 37 °C, octanol/ddH2O, read-out: Log P/D Value O/W (pH 7.0)

SMILES: CC(C)=C/C=C/[C@H](C)[C@H]1CC[C@]2(C)C[C@@H]3C(C)=CC(=O)[C@H]3/C(C=O)=C\C[C@@H]12 [MHO7, 6-epi-ophiobolin G]
- logP at 4 h ([1]; 25 °C, read-out: Log P Value): 1.23 ± 0.02
- logP at 8 h ([1]; 25 °C, read-out: Log P Value): 1.22 ± 0.04
- logP at 12 h ([1]; 25 °C, read-out: Log P Value): 1.23 ± 0.03
- logP at 24 h ([1]; 25 °C, read-out: Log P Value): 1.23 ± 0.02
- logP at 30 h ([1]; 25 °C, read-out: Log P Value): 1.27 ± 0.15
- logP at 36 h ([1]; 25 °C, read-out: Log P Value): 1.27 ± 0.03
- logP at 48 h ([1]; 25 °C, read-out: Log P Value): 1.29 ± 0.05
- logP at 4 h [1, 3]: 2.55 ± 0.01
- logP at 8 h [1, 3]: 2.51 ± 0.04
- logP at 12 h [1, 3]: 2.48 ± 0.02
- logP at 24 h [1, 3]: 2.49 ± 0.02
- logP at 30 h [1, 3]: 2.47 ± 0.01
- logP at 36 h [1, 3]: 2.49 ± 0.03
- logP at 48 h [1, 3]: 2.48 ± 0.03
- logD at 4 h ([2]; octanol/PBS pH 1.5, 4 h, read-out: Log P/D Value O/P (pH 1.5)): 1.29 ± 0.02
- logD at 8 h ([2]; octanol/PBS pH 1.5, 8 h, read-out: Log P/D Value O/P (pH 1.5)): 1.22 ± 0.04
- logD at 12 h ([2]; octanol/PBS pH 1.5, 12 h, read-out: Log P/D Value O/P (pH 1.5)): 1.13 ± 0.03
- logD at 24 h ([2]; octanol/PBS pH 1.5, 24 h, read-out: Log P/D Value O/P (pH 1.5)): 1.13 ± 0.02
- logD at 30 h ([2]; octanol/PBS pH 1.5, 30 h, read-out: Log P/D Value O/P (pH 1.5)): 1.12 ± 0.15
- logD at 36 h ([2]; octanol/PBS pH 1.5, 36 h, read-out: Log P/D Value O/P (pH 1.5)): 1.12 ± 0.03
- logD at 48 h ([2]; octanol/PBS pH 1.5, 48 h, read-out: Log P/D Value O/P (pH 1.5)): 1.12 ± 0.03
- logD at 4 h ([2]; octanol/PBS pH 5.0, 4 h, read-out: Log P/D Value O/P (pH 5.0)): 1.15 ± 0.02
- logD at 8 h ([2]; octanol/PBS pH 5.0, 8 h, read-out: Log P/D Value O/P (pH 5.0)): 1.03 ± 0.05
- logD at 12 h ([2]; octanol/PBS pH 5.0, 12 h, read-out: Log P/D Value O/P (pH 5.0)): 0.95 ± 0.03
- logD at 24 h ([2]; octanol/PBS pH 5.0, 24 h, read-out: Log P/D Value O/P (pH 5.0)): 0.95 ± 0.04
- logD at 30 h ([2]; octanol/PBS pH 5.0, 30 h, read-out: Log P/D Value O/P (pH 5.0)): 0.95 ± 0.03
- logD at 36 h ([2]; octanol/PBS pH 5.0, 36 h, read-out: Log P/D Value O/P (pH 5.0)): 0.93 ± 0.03
- logD at 48 h ([2]; octanol/PBS pH 5.0, 48 h, read-out: Log P/D Value O/P (pH 5.0)): 0.93 ± 0.02
- logD at 4 h ([2]; octanol/PBS pH 7.4, 4 h, read-out: Log P/D Value O/P (pH 7.4)): 1.39 ± 0.03
- logD at 8 h ([2]; octanol/PBS pH 7.4, 8 h, read-out: Log P/D Value O/P (pH 7.4)): 1.37 ± 0.05
- logD at 12 h ([2]; octanol/PBS pH 7.4, 12 h, read-out: Log P/D Value O/P (pH 7.4)): 1.31 ± 0.03
- logD at 24 h ([2]; octanol/PBS pH 7.4, 24 h, read-out: Log P/D Value O/P (pH 7.4)): 1.29 ± 0.02
- logD at 30 h ([2]; octanol/PBS pH 7.4, 30 h, read-out: Log P/D Value O/P (pH 7.4)): 1.27 ± 0.04
- logD at 36 h ([2]; octanol/PBS pH 7.4, 36 h, read-out: Log P/D Value O/P (pH 7.4)): 1.26 ± 0.05
- logD at 48 h ([2]; octanol/PBS pH 7.4, 48 h, read-out: Log P/D Value O/P (pH 7.4)): 1.26 ± 0.01

From publication PMC6950057, “Toxicity, Pharmacokinetics, and Gut Microbiome of Oral Administration of Sesterterpene MHO7 Derived from a Marine Fungus” (Marine Drugs, 2019)
